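Method: 48-hour compound exposure of cells in 96-well plates, five concentrations, linear interpolation of endpoints. Abbreviation: GI50, concentration required for 50% inhibition of growth. TGI: concentration producing complete growth inhibition.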
Columns and labels:
Experiment in all cases: DTP human tumour cell line panel, 48 h
COLO 205 colon = test system: COLO 205 colon
MALME-3M melanoma = test system: MALME-3M melanoma
CCRF-CEM leukemia = test system: CCRF-CEM leukemia
SF-295 CNS = test system: SF-295 CNS
SK-MEL-5 melanoma = test system: SK-MEL-5 melanoma
786-0 renal = test system: 786-0 renal
UO-31 renal = test system: UO-31 renal
K-562 leukemia = test system: K-562 leukemia
MDA-MB-435 = test system: MDA-MB-435
BT-549 breast = test system: BT-549 breast

## O=C(O)c1cc2c(cn1)[nH]c1ccccc12
COLO 205 colon
  TGI: > 100 µM
MALME-3M melanoma
  TGI: > 100 µM
CCRF-CEM leukemia
  TGI: > 100 µM
SF-295 CNS
  TGI: > 100 µM
SK-MEL-5 melanoma
  TGI: > 100 µM
786-0 renal
  TGI: > 100 µM
UO-31 renal
  TGI: > 100 µM
K-562 leukemia
  TGI: > 100 µM

## CC(=O)OCC1OC(n2c(=O)n(-c3ccccc3)c(=O)c3ccccc32)C(OC(C)=O)C(OC(C)=O)C1OC(C)=O (centres undefined)
COLO 205 colon
  TGI: > 100 µM
MALME-3M melanoma
  TGI: > 100 µM
CCRF-CEM leukemia
  TGI: > 100 µM
SF-295 CNS
  TGI: > 100 µM
SK-MEL-5 melanoma
  TGI: > 100 µM
786-0 renal
  TGI: > 100 µM
UO-31 renal
  TGI: > 100 µM
K-562 leukemia
  TGI: > 100 µM

## O=C(Oc1ccc(CCl)cc1)c1ccccc1
COLO 205 colon
  GI50: 0.136 µM
  TGI: 0.307 µM
MALME-3M melanoma
  GI50: 0.127 µM
  TGI: 0.274 µM
MDA-MB-435
  GI50: 0.155 µM
  TGI: 0.299 µM
CCRF-CEM leukemia
  GI50: 0.0335 µM
  TGI: 0.146 µM
SF-295 CNS
  GI50: 0.185 µM
  TGI: 0.543 µM
SK-MEL-5 melanoma
  GI50: 0.447 µM
  TGI: 1.64 µM
786-0 renal
  GI50: 0.125 µM
  TGI: 0.286 µM
UO-31 renal
  GI50: 0.173 µM
  TGI: 0.319 µM
BT-549 breast
  GI50: 0.154 µM
  TGI: 0.295 µM

## CCOC(=O)C1C(=O)c2ccccc2CN1Cc1ccccc1 (centres undefined)
COLO 205 colon
  TGI: > 100 µM
MALME-3M melanoma
  TGI: > 100 µM
CCRF-CEM leukemia
  TGI: > 100 µM
SF-295 CNS
  TGI: > 100 µM
SK-MEL-5 melanoma
  TGI: > 100 µM
786-0 renal
  TGI: > 100 µM
UO-31 renal
  TGI: > 100 µM
K-562 leukemia
  TGI: > 100 µM

## O=C1C(=O)N(c2ccc(Cl)c(Cl)c2)C(=O)C(=O)C1c1nc2ccccc2o1
COLO 205 colon
  TGI: > 100 µM
MALME-3M melanoma
  TGI: > 100 µM
SF-295 CNS
  TGI: > 100 µM
786-0 renal
  TGI: > 100 µM
UO-31 renal
  TGI: > 100 µM
K-562 leukemia
  TGI: > 100 µM

## COc1ccc2ccc([Se]c3ccc4ccc(OC)cc4c3)cc2c1
COLO 205 colon
  TGI: > 100 µM
MALME-3M melanoma
  TGI: > 100 µM
CCRF-CEM leukemia
  TGI: > 100 µM
SF-295 CNS
  TGI: > 100 µM
SK-MEL-5 melanoma
  TGI: > 100 µM
786-0 renal
  TGI: > 100 µM
UO-31 renal
  TGI: 95.8 µM
K-562 leukemia
  TGI: > 100 µM

## COC(=O)Nc1nc2ccccc2c(=O)[nH]1
COLO 205 colon
  TGI: > 100 µM
MALME-3M melanoma
  TGI: > 100 µM
CCRF-CEM leukemia
  TGI: > 100 µM
SF-295 CNS
  TGI: > 100 µM
SK-MEL-5 melanoma
  TGI: > 100 µM
786-0 renal
  TGI: > 100 µM
UO-31 renal
  TGI: > 100 µM
BT-549 breast
  TGI: > 100 µM
K-562 leukemia
  TGI: > 100 µM

## O=c1cc(-c2ccccc2)nc2n1CCN2Cc1ccccc1
COLO 205 colon
  GI50: 26.1 µM
  TGI: 68.1 µM
MDA-MB-435
  GI50: 31.1 µM
  TGI: > 100 µM
CCRF-CEM leukemia
  GI50: 16.2 µM
  TGI: 42.8 µM
SF-295 CNS
  GI50: 21.1 µM
  TGI: 72.2 µM
SK-MEL-5 melanoma
  GI50: 19.9 µM
  TGI: 37.4 µM
786-0 renal
  GI50: 39.7 µM
  TGI: > 100 µM
UO-31 renal
  GI50: 21.3 µM
  TGI: 74.7 µM
BT-549 breast
  GI50: 26.6 µM
  TGI: 67.2 µM
K-562 leukemia
  GI50: 34.7 µM
  TGI: 90.3 µM

## CCOC(=O)Oc1c(OC)cc(C(=O)O[C@@H]2C[C@@H]3CN4CCc5c([nH]c6cc(OC)ccc56)[C@H]4C[C@@H]3[C@H](C(=O)OC)[C@H]2OC)cc1OC
COLO 205 colon
  GI50: 10.3 µM
  TGI: 24.1 µM
MALME-3M melanoma
  GI50: 6.74 µM
  TGI: 27.1 µM
MDA-MB-435
  GI50: 8.33 µM
  TGI: 23.9 µM
SF-295 CNS
  GI50: 10.2 µM
  TGI: 31.4 µM
SK-MEL-5 melanoma
  GI50: 7.86 µM
  TGI: 20.7 µM
786-0 renal
  GI50: 9.62 µM
  TGI: 25.3 µM
UO-31 renal
  GI50: 5.18 µM
  TGI: > 100 µM
BT-549 breast
  GI50: 9.08 µM
  TGI: 24.1 µM
K-562 leukemia
  GI50: 3.5 µM
  TGI: 35.7 µM

## Cc1c2cc[nH]c(=O)c2cc2c(=O)c3cnccc3[nH]c12
COLO 205 colon
  TGI: > 100 µM
MALME-3M melanoma
  TGI: > 100 µM
CCRF-CEM leukemia
  TGI: > 100 µM
SF-295 CNS
  TGI: > 100 µM
SK-MEL-5 melanoma
  TGI: > 100 µM
786-0 renal
  TGI: > 100 µM
UO-31 renal
  TGI: > 100 µM
K-562 leukemia
  TGI: > 100 µM
